Source: patent US8841343B2, “Composition for repelling mosquitoes” (Bio & Hnt, Inc., priority 2006, dated 2014)

Tested on: Aedes aegypti
Assay: Examination of repellent activity using skin test (treated human forearm in cage of about 100 mated female mosquitoes)
Assay type: in vivo
Conditions: for Effective repellency duration (hour) (mean ± standard deviation): maximum measurement time 12 hours
Text: Citronellic acid and geranic acid, which are used in the present invention, are commercially available or can directly be synthesized. In this embodiment, products of Aldrich Co. (product names are respectively Citronellic acid and Geranic acid) were purchased and used as citronellic acid and geranic acid. Purities of the above two compounds were examined using a gas chromatograph (GC) and a gas chromatograph-mass spectrometry (GC-MS). The compounds having purity of 99.5% or greater were only used. Respective ingredients of the above compounds were added to isopropyl alcohol of 91% to make test samples consisting of a solution in the concentration of 0.5 to 50%. The samples were used for mosquito repellent efficacy experiments.
The test samples manufactured as above underwent repellent effective experiments with respect to Aedes which is a main mosquito group attacking human.
In this embodiment, Aedes aegypti was used as test mosquitoes. The Aedes aegypti was supplied from Korea Research Institute of Bioscience and Biotechnology and reared indoor from generation to generation.
The larvae of the Aedes aegypti were reared in a plastic container of 22×14×7 cm containing distilled water with small amount of one-to-one mixture of chicken feed and yeast. Fresh mosquito pupae were transferred into a paper cup containing water and then placed in a transparent rearing cage to emerge as adults. Here, the rearing cage was constructed with metal net. Males and females of the freshly emerged mosquitoes were transferred to a rearing cage at one-to-one ratio, and left for two or three days for mating. The female mosquitoes were then used for repellency tests. Eight percent (8%) sugar water was supplied for the adult mosquitoes. The following rearing conditions were maintained: light condition of 16 h:8 h (day:night), temperature of 27±2° C., and relative humidity of 80±10%.
In order to examine effectiveness of the mosquito repellent of the prepared sample solutions, one (1) ml of a sample solution was uniformly applied, using a metal rod, on a forearm of a volunteer human test subject between wrist and elbow. Thereafter, the arm treated with the test solution was inserted in a bioassay cage, constructed with Plexiglass of 50×50×50 cm containing approximately 100 mated female mosquitoes. The number of mosquitoes trying to bite was recorded for three minutes in every thirty minutes for up to 4 hours or in every hour for up to 12 hours. The time required to get the arm bitten by two cumulative mosquitoes was regarded as effective repellency duration. A net window of 40×40 cm was present at each side and top of the Plexiglass bioassay cage to allow air ventilation. A 15×15 cm hole was prepared at the front side of the Plexiglass bioassay cage and a long net sleeve was attached to the hole so that the test arm could be put into the cage for repellency test.
At the beginning of each repellency test, an arm treated with no solvent was placed in the bioassay cage containing mosquitoes, in order to examine blood feeding activity of the mated female test mosquitoes. The repellency tests with the test solutions were carried out only when the arm was bitten by at least two mosquitoes for initial three minutes.
Repellent activity against Aedes was examined in accordance with the aforementioned method using the samples which respectively contain citronellic acid and geranic acid. Also, mosquito repellent activity was measured with solutions which contain DEET and Picadirin, wherein the DEET and Picadirin are commercially available mosquito repellents which are currently recommended by the Center for Disease Control of the United States.
In Table 4 to Table 6, the repellent efficiency was calculated using the following Equation 1.

[1] = 10% (0.25 mg/cm^3), 120 minutes
[2] = 10% (0.25 mg/cm^3), 150 minutes
[3] = 10% (0.25 mg/cm^3), 180 minutes
[4] = 10% (0.25 mg/cm^3), 210 minutes
[5] = 10% (0.25 mg/cm^3), 240 minutes
[6] = concentration 10% (0.25 mg/cm^3), time until two cumulative bites, maximum measurement time 240 minutes

CC(C)=CCC/C(C)=C/C(=O)O [Geranic acid, geranic acid]
Repellent efficiency (%) per time (minutes) (2% (0.05 mg/cm^3), 30 minutes): 100%
Repellent efficiency (%) per time (minutes) (2% (0.05 mg/cm^3), 60 minutes): 100%
Repellent efficiency (%) per time (minutes) (2% (0.05 mg/cm^3), 90 minutes): 100%
Repellent efficiency (%) per time (minutes) (2% (0.05 mg/cm^3), 120 minutes): 100%
Repellent efficiency (%) per time (minutes) (2% (0.05 mg/cm^3), 150 minutes): 83.3%
Repellent efficiency (%) per time (minutes) (2% (0.05 mg/cm^3), 180 minutes): 50.0%
Repellent efficiency (%) per time (minutes) (2% (0.05 mg/cm^3), 210 minutes): 50.0%
Repellent efficiency (%) per time (minutes) (2% (0.05 mg/cm^3), 240 minutes): 33.3%
Repellent efficiency (%) per time (minutes) (10% (0.25 mg/cm^3), 30 minutes): 100%
Repellent efficiency (%) per time (minutes) (10% (0.25 mg/cm^3), 60 minutes): 100%
Repellent efficiency (%) per time (minutes) (10% (0.25 mg/cm^3), 90 minutes): 100%
Repellent efficiency (%) per time (minutes) [1]: 100%
Repellent efficiency (%) per time (minutes) [2]: 100%
Repellent efficiency (%) per time (minutes) [3]: 100%
Repellent efficiency (%) per time (minutes) [4]: 100%
Repellent efficiency (%) per time (minutes) [5]: 87.5%
Repellent efficiency (%) per time (hours) (15% (0.375 mg/cm^3), 1 hour): 100%
Repellent efficiency (%) per time (hours) (15% (0.375 mg/cm^3), 2 hours): 100%
Repellent efficiency (%) per time (hours) (15% (0.375 mg/cm^3), 3 hours): 100%
Repellent efficiency (%) per time (hours) (15% (0.375 mg/cm^3), 4 hours): 81.8%
Repellent efficiency (%) per time (hours) (15% (0.375 mg/cm^3), 5 hours): 72.7%
Repellent efficiency (%) per time (hours) (15% (0.375 mg/cm^3), 6 hours): 54.5%
Repellent efficiency (%) per time (hours) (15% (0.375 mg/cm^3), 7 hours): 54.5%
Repellent efficiency (%) per time (hours) (15% (0.375 mg/cm^3), 8 hours): 54.5%
Repellent efficiency (%) per time (hours) (15% (0.375 mg/cm^3), 9 hours): 45.5%
Repellent efficiency (%) per time (hours) (30% (0.75 mg/cm^3), 1 hour): 100%
Repellent efficiency (%) per time (hours) (30% (0.75 mg/cm^3), 2 hours): 100%
Repellent efficiency (%) per time (hours) (30% (0.75 mg/cm^3), 3 hours): 100%
Repellent efficiency (%) per time (hours) (30% (0.75 mg/cm^3), 4 hours): 100%
Repellent efficiency (%) per time (hours) (30% (0.75 mg/cm^3), 5 hours): 100%
Repellent efficiency (%) per time (hours) (30% (0.75 mg/cm^3), 6 hours): 85.7%
Repellent efficiency (%) per time (hours) (30% (0.75 mg/cm^3), 7 hours): 85.7%
Repellent efficiency (%) per time (hours) (30% (0.75 mg/cm^3), 8 hours): 85.7%
Repellent efficiency (%) per time (hours) (30% (0.75 mg/cm^3), 9 hours): 85.7%
Repellent efficiency (%) per time (hours) (30% (0.75 mg/cm^3), 10 hours): 85.7%
Repellent efficiency (%) per time (hours) (30% (0.75 mg/cm^3), 11 hours): 78.6%
Repellent efficiency (%) per time (hours) (30% (0.75 mg/cm^3), 12 hours): 71.4%
Repellent efficiency (%) per time (hours) (50% (1.25 mg/cm^3), 1 hour): 100%
Repellent efficiency (%) per time (hours) (50% (1.25 mg/cm^3), 2 hours): 100%
Repellent efficiency (%) per time (hours) (50% (1.25 mg/cm^3), 3 hours): 100%
Repellent efficiency (%) per time (hours) (50% (1.25 mg/cm^3), 4 hours): 100%
Repellent efficiency (%) per time (hours) (50% (1.25 mg/cm^3), 5 hours): 100%
Repellent efficiency (%) per time (hours) (50% (1.25 mg/cm^3), 6 hours): 100%
Repellent efficiency (%) per time (hours) (50% (1.25 mg/cm^3), 7 hours): 100%
Repellent efficiency (%) per time (hours) (50% (1.25 mg/cm^3), 8 hours): 100%
Repellent efficiency (%) per time (hours) (50% (1.25 mg/cm^3), 9 hours): 100%
Repellent efficiency (%) per time (hours) (50% (1.25 mg/cm^3), 10 hours): 100%
Repellent efficiency (%) per time (hours) (50% (1.25 mg/cm^3), 11 hours): 90%
Repellent efficiency (%) per time (hours) (50% (1.25 mg/cm^3), 12 hours): 80%
repellency (in words) (at the level of 0.0125 mg/cm^3): did not represent any repellency
time for which repellent efficiency of 100% was shown (at the level of 0.05 mg/cm^3): 120 min
time for which repellent efficiency of 100% was shown (at the level of 0.25 mg/cm^3): 210 min
Effective repellency duration (minute) (mean ± standard deviation) (concentration 0.5% (0.0125 mg/cm^3), time until arm bitten by two cumulative mosquitoes): 0 ± 0 min
Effective repellency duration (minute) (mean ± standard deviation) (concentration 2% (0.05 mg/cm^3), time until arm bitten by two cumulative mosquitoes): 195 ± 45.0 min
Effective repellency duration (minute) (mean ± standard deviation) (concentration 2% (0.05 mg/cm^3), time until arm bitten by two cumulative mosquitoes, listed as geranic acid): 195 min
Effective repellency duration (minute) (mean ± standard deviation) [6]: 240 ± 0 min
Effective repellency duration (minute) (mean ± standard deviation) (concentration 10% (0.25 mg/cm^3), time until two cumulative bites, maximum measurement time 240 minutes, listed as geranic acid): 240 min
Effective repellency duration (hour) (mean ± standard deviation) (concentration 15% (0.375 mg/cm^3)): 6.7 ± 1.20 h
Effective repellency duration (hour) (mean ± standard deviation) (concentration 30% (0.75 mg/cm^3)): 10.0 ± 2.00 h
Effective repellency duration (hour) (mean ± standard deviation) (concentration 30% (0.75 mg/cm^3), listed as geranic acid): 10 h
Effective repellency duration (hour) (mean ± standard deviation) (concentration 50% (1.25 mg/cm^3)): 12.0 ± 0 h
Effective repellency duration (hour) (mean ± standard deviation) (concentration 50% (1.25 mg/cm^3), listed as geranic acid): 12 h
repellent efficiency (for 10 hours at the level of 0.75 mg/cm^3): ~90%
repellent efficiency (for 10 hours at the level of 1.25 mg/cm^3): 100%

CCC(C)OC(=O)N1CCCCC1CCO (stereo not drawn) [Picadirin, reference compound]
Repellent efficiency (%) per time (minutes) (10% (0.25 mg/cm^3), 30 minutes): 85.0%
Repellent efficiency (%) per time (minutes) (10% (0.25 mg/cm^3), 60 minutes): 85.0%
Repellent efficiency (%) per time (minutes) (10% (0.25 mg/cm^3), 90 minutes): 85.0%
Repellent efficiency (%) per time (minutes) [1]: 80.0%
Repellent efficiency (%) per time (minutes) [2]: 75.0%
Repellent efficiency (%) per time (minutes) [3]: 72.5%
Repellent efficiency (%) per time (minutes) [4]: 62.5%
Repellent efficiency (%) per time (minutes) [5]: 47.5%
time for which repellent efficiency of 100% was shown (at the level of 0.25 mg/cm^3): less than 30 minutes
Effective repellency duration (minute) (mean ± standard deviation) [6]: 158 min
Effective repellency duration (minute) (mean ± standard deviation) (concentration 10% (0.25 mg/cm^3), time until two cumulative bites, maximum measurement time 240 minutes, listed as Picadrin): 158 ± 27.5 min
